Assay results as given in ChEMBL document CHEMBL3232804, “Synthesis and evaluation of new diaryl ether and quinoline hybrids as potential antiplasmodial and antimicrobial agents” (Bioorg Med Chem Lett, 2014).
Values after ≈ are worked out from the molar mass of the structure shown.

Columns and labels:
Aspergillus fumigatus = test: Antifungal activity against Aspergillus fumigatus clinical isolate after 72 to 96 hrs by standard broth microdilution method; assay type: functional
Plasmodium falciparum [1] = test: Antiplasmodial activity against chloroquine-resistant Plasmodium falciparum K1 infected after 72 hrs by Malaria SYBR Green I-staining based fluorescence assay; assay type: functional, organism-based; conditions: K1, 72 h
Pseudomonas aeruginosa = test: Antimicrobial activity against Pseudomonas aeruginosa ATCC BAA-427 after 24 hrs by standard broth microdilution method; assay type: functional; conditions: ATCC BAA-427, 24 h
Plasmodium falciparum [2] = test: Antiplasmodial activity against chloroquine-sensitive Plasmodium falciparum 3D7 infected after 72 hrs by Malaria SYBR Green I-staining based fluorescence assay; assay type: functional, organism-based; conditions: 3D7, 72 h
Klebsiella pneumoniae = test: Antimicrobial activity against Klebsiella pneumoniae ATCC 27736 after 24 hrs by standard broth microdilution method; assay type: functional; conditions: ATCC 27736, 24 h
Cryptococcus neoformans = test: Antifungal activity against Cryptococcus neoformans clinical isolate after 24 to 48 hrs by standard broth microdilution method; assay type: functional
Candida albicans = test: Antifungal activity against Candida albicans clinical isolate after 24 to 48 hrs by standard broth microdilution method; assay type: functional
Candida parapsilosis = test: Antifungal activity against Candida parapsilosis ATCC […] after 72 to 96 hrs by standard broth microdilution method; assay type: functional; conditions: Lodderomyces parapsilosis
Sporothrix schenckii = test: Antifungal activity against Sporothrix schenckii clinical isolate after 72 to 96 hrs by standard broth microdilution method; assay type: functional
[3] = Selectivity index, ratio of IC50 for african green monkey Vero cells to IC50 for chloroquine-sensitive Plasmodium falciparum 3D7; assay type: toxicity, cell-based; conditions: read-out: Ratio IC50
Escherichia coli = test: Antimicrobial activity against Escherichia coli ATCC 9637 after 24 hrs by standard broth microdilution method; assay type: functional; conditions: ATCC 9637, 24 h
Staphylococcus aureus = test: Antimicrobial activity against Staphylococcus aureus ATCC 25923 after 24 hrs by standard broth microdilution method; assay type: functional; conditions: ATCC 25923, 24 h
[4] = system: Trichophyton mentagrophytes; test: Antifungal activity against Trichophyton mentagrophytes clinical isolate after 72 to 96 hrs by standard broth microdilution method; assay type: functional

For `Clc1ccc(Cl)c(Oc2ccccc2N/C(=N/c2ccccc2)NCCNc2ccnc3cc(Cl)ccc23)c1`, which MIC (Aspergillus fumigatus) is on record?
Its MIC is over 50 µg/mL.

And the IC50 (Plasmodium falciparum [1])?
Its IC50 is 95.8 nM.

What about the MIC (Pseudomonas aeruginosa) of the same molecule?
The MIC was over 50 µg/mL.

And the IC50 (Plasmodium falciparum [2])?
Its IC50 is 42.5 nM.

And the MIC (Klebsiella pneumoniae)?
Its MIC is 50 µg/mL (≈ 86.7 µM).

What about the MIC (Cryptococcus neoformans) of the same molecule?
Its MIC is over 50 µg/mL.

And the MIC (Candida albicans)?
Its MIC is 50 µg/mL (≈ 86.7 µM).

What about the MIC (Candida parapsilosis) of the same molecule?
Its MIC is 50 µg/mL (≈ 86.7 µM).

What about the MIC (Sporothrix schenckii) of the same molecule?
Its MIC is 50 µg/mL (≈ 86.7 µM).

What about the selectivity ratio [3] of the same molecule?
The selectivity ratio was 173.

And the MIC (Escherichia coli)?
The MIC was 25 µg/mL (≈ 43.3 µM).

And the MIC (Staphylococcus aureus)?
The MIC was 12.5 µg/mL (≈ 21.7 µM).

What about the MIC [4] of the same molecule?
The MIC was 25 µg/mL (≈ 43.3 µM).

What does the source list for `COc1ccc(Oc2ccc(N/C(=N/c3ccc(Cl)cc3)NCCNc3ccnc4cc(Cl)ccc34)cc2)cc1`?
MIC (Aspergillus fumigatus): 25 µg/mL (≈ 43.7 µM); IC50 (Plasmodium falciparum [1]): 105 nM; MIC (Pseudomonas aeruginosa): > 50 µg/mL; IC50 (Plasmodium falciparum [2]): 69 nM; MIC (Klebsiella pneumoniae): 12.5 µg/mL (≈ 21.8 µM); MIC (Cryptococcus neoformans): 25 µg/mL (≈ 43.7 µM); MIC (Candida albicans): 12.5 µg/mL (≈ 21.8 µM); MIC (Candida parapsilosis): 12.5 µg/mL (≈ 21.8 µM); MIC (Sporothrix schenckii): 6.25 µg/mL (≈ 10.9 µM); selectivity ratio [3]: 122; MIC (Escherichia coli): 6.25 µg/mL (≈ 10.9 µM); MIC (Staphylococcus aureus): 6.25 µg/mL (≈ 10.9 µM); MIC [4]: 12.5 µg/mL (≈ 21.8 µM)

Which MIC (Aspergillus fumigatus) does the source give for `COc1ccc(Oc2ccc(N/C(=N/c3ccccc3)NCCCCNc3ccnc4cc(Cl)ccc34)cc2)cc1` here?
Its MIC is 25 µg/mL (≈ 44.2 µM).

What about the IC50 (Plasmodium falciparum [1]) of the same molecule?
The IC50 was 92.1 nM.

And the MIC (Pseudomonas aeruginosa)?
The MIC was over 50 µg/mL.

What about the IC50 (Plasmodium falciparum [2]) of the same molecule?
Its IC50 is 86 nM.

What about the MIC (Klebsiella pneumoniae) of the same molecule?
The MIC was 25 µg/mL (≈ 44.2 µM).

And the MIC (Cryptococcus neoformans)?
The MIC was 25 µg/mL (≈ 44.2 µM).

And the MIC (Candida albicans)?
The MIC was 12.5 µg/mL (≈ 22.1 µM).

What about the MIC (Candida parapsilosis) of the same molecule?
Its MIC is 12.5 µg/mL (≈ 22.1 µM).

What about the MIC (Sporothrix schenckii) of the same molecule?
The MIC was 12.5 µg/mL (≈ 22.1 µM).

What about the selectivity ratio [3] of the same molecule?
Its selectivity ratio is 49.

What about the MIC (Escherichia coli) of the same molecule?
Its MIC is 50 µg/mL (≈ 88.3 µM).

And the MIC (Staphylococcus aureus)?
The MIC was 6.25 µg/mL (≈ 11 µM).

What about the MIC [4] of the same molecule?
The MIC was 12.5 µg/mL (≈ 22.1 µM).

With `COC(=O)/C(C)=C/c1ccc(Oc2ccc(N/C(=N/c3ccc(Cl)cc3)NCCCCNc3ccnc4cc(Cl)ccc34)cc2)cc1` as the molecule, how does the MIC (Aspergillus fumigatus) read?
The MIC was 50 µg/mL (≈ 74.8 µM).

And the IC50 (Plasmodium falciparum [1])?
Its IC50 is 716 nM.

What about the MIC (Pseudomonas aeruginosa) of the same molecule?
The MIC was over 50 µg/mL.

What about the IC50 (Plasmodium falciparum [2]) of the same molecule?
The IC50 was 56.4 nM.

And the MIC (Klebsiella pneumoniae)?
The MIC was 50 µg/mL (≈ 74.8 µM).

And the MIC (Cryptococcus neoformans)?
The MIC was 6.25 µg/mL (≈ 9.35 µM).

What about the MIC (Candida albicans) of the same molecule?
Its MIC is 6.25 µg/mL (≈ 9.35 µM).

And the MIC (Candida parapsilosis)?
Its MIC is 12.5 µg/mL (≈ 18.7 µM).

What about the MIC (Sporothrix schenckii) of the same molecule?
Its MIC is 6.25 µg/mL (≈ 9.35 µM).

And the selectivity ratio [3]?
Its selectivity ratio is 145.

What about the MIC (Escherichia coli) of the same molecule?
The MIC was 25 µg/mL (≈ 37.4 µM).

And the MIC (Staphylococcus aureus)?
Its MIC is 12.5 µg/mL (≈ 18.7 µM).

What about the MIC [4] of the same molecule?
Its MIC is 12.5 µg/mL (≈ 18.7 µM).

Which results are given for `COC(=O)/C(C)=C/c1ccc(Oc2ccc(N/C(=N/c3ccccc3)NCCNc3ccnc4cc(Cl)ccc34)cc2)cc1`?
MIC (Aspergillus fumigatus): 25 µg/mL (≈ 41.2 µM); IC50 (Plasmodium falciparum [1]): 65.9 nM; MIC (Pseudomonas aeruginosa): > 50 µg/mL; IC50 (Plasmodium falciparum [2]): 70.3 nM; MIC (Klebsiella pneumoniae): > 50 µg/mL; MIC (Cryptococcus neoformans): 12.5 µg/mL (≈ 20.6 µM); MIC (Candida albicans): 1.52 µg/mL (≈ 2.51 µM); MIC (Candida parapsilosis): 12.5 µg/mL (≈ 20.6 µM); MIC (Sporothrix schenckii): 12.5 µg/mL (≈ 20.6 µM); selectivity ratio [3]: 158; MIC (Escherichia coli): 12.5 µg/mL (≈ 20.6 µM); MIC (Staphylococcus aureus): 25 µg/mL (≈ 41.2 µM); MIC [4]: 6.25 µg/mL (≈ 10.3 µM)

For `Clc1ccc(/N=C(\NCCNc2ccnc3cc(Cl)ccc23)Nc2ccc(Oc3cc(Cl)ccc3Cl)cc2)cc1`, which MIC (Aspergillus fumigatus) is on record?
Its MIC is 6.25 µg/mL (≈ 10.2 µM).

What about the IC50 (Plasmodium falciparum [1]) of the same molecule?
Its IC50 is 54.1 nM.

What about the MIC (Pseudomonas aeruginosa) of the same molecule?
Its MIC is over 50 µg/mL.

What about the IC50 (Plasmodium falciparum [2]) of the same molecule?
Its IC50 is 44 nM.

And the MIC (Klebsiella pneumoniae)?
Its MIC is over 50 µg/mL.

What about the MIC (Cryptococcus neoformans) of the same molecule?
The MIC was 6.25 µg/mL (≈ 10.2 µM).

And the MIC (Candida albicans)?
The MIC was 6.25 µg/mL (≈ 10.2 µM).

And the MIC (Candida parapsilosis)?
Its MIC is 12.5 µg/mL (≈ 20.4 µM).

And the MIC (Sporothrix schenckii)?
Its MIC is 3.12 µg/mL (≈ 5.1 µM).

What about the selectivity ratio [3] of the same molecule?
The selectivity ratio was 189.

What about the MIC (Escherichia coli) of the same molecule?
Its MIC is 6.25 µg/mL (≈ 10.2 µM).

What about the MIC (Staphylococcus aureus) of the same molecule?
Its MIC is 25 µg/mL (≈ 40.9 µM).

What about the MIC [4] of the same molecule?
The MIC was 6.25 µg/mL (≈ 10.2 µM).

What does the source list for `COC(=O)/C(C)=C/c1ccc(Oc2ccc(N/C(=N/c3cccc(Cl)c3)NCCCCNc3ccnc4cc(Cl)ccc34)cc2)cc1`?
MIC (Aspergillus fumigatus): > 50 µg/mL; IC50 (Plasmodium falciparum [1]): 66.8 nM; MIC (Pseudomonas aeruginosa): > 50 µg/mL; IC50 (Plasmodium falciparum [2]): 51.9 nM; MIC (Klebsiella pneumoniae): 50 µg/mL (≈ 74.8 µM); MIC (Cryptococcus neoformans): > 50 µg/mL; MIC (Candida albicans): > 50 µg/mL; MIC (Candida parapsilosis): > 50 µg/mL; MIC (Sporothrix schenckii): 50 µg/mL (≈ 74.8 µM); selectivity ratio [3]: 47.9; MIC (Escherichia coli): 12.5 µg/mL (≈ 18.7 µM); MIC (Staphylococcus aureus): 3.12 µg/mL (≈ 4.67 µM); MIC [4]: 50 µg/mL (≈ 74.8 µM)

Which results are given for `Clc1cccc(/N=C(\NCCCNc2ccnc3cc(Cl)ccc23)Nc2ccccc2Oc2cc(Cl)ccc2Cl)c1`?
MIC (Aspergillus fumigatus): > 50 µg/mL; IC50 (Plasmodium falciparum [1]): 77.7 nM; MIC (Pseudomonas aeruginosa): > 50 µg/mL; IC50 (Plasmodium falciparum [2]): 87.7 nM; MIC (Klebsiella pneumoniae): > 50 µg/mL; MIC (Cryptococcus neoformans): 50 µg/mL (≈ 80 µM); MIC (Candida albicans): 25 µg/mL (≈ 40 µM); MIC (Candida parapsilosis): 50 µg/mL (≈ 80 µM); MIC (Sporothrix schenckii): 50 µg/mL (≈ 80 µM); selectivity ratio [3]: 18.7; MIC (Escherichia coli): 6.25 µg/mL (≈ 9.99 µM); MIC (Staphylococcus aureus): 1.56 µg/mL (≈ 2.49 µM); MIC [4]: 50 µg/mL (≈ 80 µM)

Which MIC (Aspergillus fumigatus) does the source give for `COc1ccc(Oc2ccc(N/C(=N/c3ccc(Cl)cc3)NCCCCNc3ccnc4cc(Cl)ccc34)cc2)cc1` here?
Its MIC is 25 µg/mL (≈ 41.6 µM).

What about the IC50 (Plasmodium falciparum [1]) of the same molecule?
Its IC50 is 138 nM.

What about the MIC (Pseudomonas aeruginosa) of the same molecule?
The MIC was over 50 µg/mL.

And the IC50 (Plasmodium falciparum [2])?
The IC50 was 33.7 nM.

And the MIC (Klebsiella pneumoniae)?
Its MIC is 25 µg/mL (≈ 41.6 µM).

And the MIC (Cryptococcus neoformans)?
Its MIC is 25 µg/mL (≈ 41.6 µM).

What about the MIC (Candida albicans) of the same molecule?
Its MIC is 25 µg/mL (≈ 41.6 µM).

What about the MIC (Candida parapsilosis) of the same molecule?
Its MIC is 6.25 µg/mL (≈ 10.4 µM).

And the MIC (Sporothrix schenckii)?
The MIC was 12.5 µg/mL (≈ 20.8 µM).

What about the selectivity ratio [3] of the same molecule?
The selectivity ratio was 88.7.

And the MIC (Escherichia coli)?
The MIC was 6.25 µg/mL (≈ 10.4 µM).

What about the MIC (Staphylococcus aureus) of the same molecule?
Its MIC is 6.25 µg/mL (≈ 10.4 µM).

And the MIC [4]?
Its MIC is 12.5 µg/mL (≈ 20.8 µM).
